Results reported in BindingDB's records for doi:10.1021/jm00099a027 (Smithkline Beecham Pharmaceuticals, 1992).
pIC50: −log10 of the molar value. Bridge positions count the residues as written; N and C are the ends. Square brackets hold non-standard residues; d marks the D form. Peptide text beside a SMILES is read from it. NMeR = CN[C@@H](CCCNC(=N)N)C(=O)O

Test: Inhibition of ADP-induced platelet aggregation in canine platelet-rich plasma

SMILES	pIC50
CC(=O)N(C)C(CCCNC(=N)N)C(=O)NCC1=CC(CC(=O)O)C(=O)N(c2ccccc2)CC1 (configuration not stated)	6.14
CC(=O)N[C@H]1CSSC[C@@H](C(N)=O)NC(=O)[C@H](CC(=O)O)NC(=O)CNC(=O)[C@H](CCCN=C(N)N)N(C)C1=O [SKF-106760] (Ac-C[NMeR]GDC-NH2; disulfide 1-5)	6.44
